Source: patent US20260041640A1 (INCYCLIX BIO, LLC, priority 2023, published 2026)
Where “and” joins values, the source holds several entries; their conditions need not be identical. Equal values may be shown once. Read-outs that look alike come from different tables or passages of the source.

Experiment: First-in-human clinical study: plasma and whole blood PK of INX-315 (oral QD, ASD tablet)
Format: in vivo
Design: AUC Plasma / AUC Whole Blood: unit not given here
Excerpt: All INX-315 tablets were taken at approximately the same time(s) each day.
Samples will also be collected pre-dose on Cycle 1 Days 2, 8, 16, and Day 22, and pre-dose on Day 1 of each subsequent cycle.
Standard non-compartmental PK parameters were estimated.
Geometric mean and geometric CV % will be included in the summary statistics.
PK parameters will be summarized descriptively by dosing cohort. AUC and Cmax values will also be presented in scatter plots. Dose proportionality will be assessed for AUC and Cmax using a power model. The 90% CI of the slope for each PK parameter will be estimated from the model and presented in a summary table.
Cohort 1 enrollment of 6 subjects dosed at 100 mg oral QD was completed in October of 2023.
Patients were upgraded to the 200 mg QD dose level and PK/PD plasma parameters were measured (FIG. 18A).
Patients were administered the 200 mg QD and 300 mg QD dose levels and PK/PD plasma parameters were measured.

[1] = Cohort 1 (100 mg QD), Day 1, individual subjects
[2] = Cohort 1 (100 mg QD), Day 15, individual subjects
[3] = Cohort 2 (200 mg QD), Day 1, individual subjects
[4] = Cohort 2 (200 mg QD), Day 15, individual subjects
[5] = Cohort 3 (300 mg QD), Day 1, individual subjects

With NS(=O)(=O)c1ccc(Nc2ncc3cc4n(c3n2)C2(CCCCC2)C(=O)NN4)cc1 [INX-315] the “Mean free plasma trough concentration” value (100 mg QD, C 1 D 1 (Day 1)) was 2.98 (6) ng/mL and 2.98 ng/mL, the “Mean free plasma trough concentration” value (100 mg QD, C 1 D 7 (Day 7)) was 5.7 (6) ng/mL and 5.71 ng/mL and the “Mean free plasma trough concentration” value (100 mg QD, C 1 D 14) was 4.72 ng/mL. The “Mean free plasma trough concentration” value (100 mg QD, C 1 D 15) was 5.43 ng/mL, the “Mean free plasma trough concentration” value (100 mg QD, C 1 D 21) was 4.72 ng/mL and the “Mean free plasma trough concentration” value (100 mg QD, C 2 D 1) was 4.32 ng/mL. For the same compound, the “Mean free plasma trough concentration” value (100 mg QD, C 3 D 1) was 4.27 ng/mL, the “Mean free plasma trough concentration” value (100 mg QD, C 4 D 1) was 5.91 ng/mL and the “Mean free plasma trough concentration” value (200 mg QD, C 1 D 1 (Day 1)) was 7.3 (2) ng/mL and 7.31 ng/mL. The “Mean free plasma trough concentration” value (200 mg QD, C 1 D 7 (Day 7)) was 10.2 (2) ng/mL and 10.16 ng/mL, the “AUC Plasma” value [1] was 2532 and 1886 and 3391 and 2271 and 3370 and 640.8 and the “AUC Whole Blood” value [1] was 44857 and 38499 and 41732 and 33139 and 60740 and 13440. The “AUC Plasma” value [2] was 1276 and 5858 and 3444 and 6910 and 1951, the “AUC Whole Blood” value [2] was 37642 and 44316 and 118285 and 31754 and the “time to steady state trough concentrations” value (Cohort 1, 100 mg QD) was ≤ 7 days. The “AUC Plasma” value [3] was 4955 and 7528 and 11982 and 19801, the “AUC Whole Blood” value [3] was 132257 and 94340 and 131625 and the “AUC Plasma” value [4] was 6987 and 6286 and 18669 and 13618. For the same compound, the “AUC Whole Blood” value [4] was 94895 and 236613 and 183345 and 112733, the “AUC Plasma” value [5] was 12111 and 11382 and 8338 and 11173 and the “AUC Whole Blood” value [5] was 149733 and 88350 and 116734 and 106858. For the same compound, the half-life (human, plasma and whole blood, oral, 100 mg, preliminary data of the expanded cohort 1, 100 mg QD, read-out: t1/2 (converted)) was ≥ 12 h, the concentration at 0.5 h (human, plasma, oral, 100 mg, 100 mg QD (n = 6), 0.5 hr) was 18.9 ng/mL and the concentration at 1 h (human, plasma, oral, 100 mg, 100 mg QD (n = 6), 1.0 hr) was 71.4 ng/mL. It also gave a concentration at 2 h (human, plasma, oral, 100 mg, 100 mg QD (n = 6), 2.0 hr) of 158 ng/mL, a concentration at 6 h (human, plasma, oral, 100 mg, 100 mg QD (n = 6), 6.0 hr) of 132 ng/mL and a concentration at 8 h (human, plasma, oral, 100 mg, 100 mg QD (n = 6), 8.0 hr) of 121 ng/mL. For the same compound, the concentration at 24 h (human, plasma, oral, 100 mg, 100 mg QD (n = 6), […], read-out: Mean plasma concentration) was 57.4 ng/mL, the AUC (human, plasma, oral, 100 mg, plasma, 100 mg QD (n = 6), read-out: Total Area (AUC)) was 2400 ng·h/mL and the Cmax (human, plasma, oral, 100 mg, plasma, 100 mg QD, Day 1 (Example 10), read-out: Cmax) was 148 ng/mL. The AUC(0-t) (human, plasma, oral, 100 mg, plasma, 100 mg QD, Day 1, Cohort 1 (Table 27), read-out: AUClast, geometric mean) was 2640 ng·h/mL, the Cmax (human, plasma, oral, 100 mg, plasma, 100 mg QD, Day 1, Cohort 1 (Table 27), read-out: Cmax, geometric mean) was 193 ng/mL and the Tmax (human, plasma, oral, 100 mg, plasma, 100 mg QD, Day 1, Cohort 1 (Table 27), read-out: Tmax, median) was 2 h. The half-life (human, plasma, oral, 100 mg, plasma, 100 mg QD, Day 1, Cohort 1 (Table 27), read-out: t1/2, geometric mean (converted)) was 12.6 h, the AUC (human, plasma, oral, 100 mg, plasma, 100 mg QD, Day 1, average of five human patients (Example 10), read-out: AUC) was 2020 ng·h/mL and the AUC(0-t) (human, plasma, oral, 100 mg, plasma, 100 mg QD, Day 1, individual patients, read-out: AUClast) was 3490 ng·h/mL. For the same compound, the half-life (human, plasma, oral, 100 mg, plasma, 100 mg QD, Day 1, individual patients, read-out: t1/2 (converted)) was 15.1 h, the AUC (human, plasma, oral, 100 mg, plasma, 100 mg QD, Day 1 observed, mean of first two patients, read-out: AUC) was 3450 ng·h/mL and the Cmax (human, plasma, oral, 100 mg, plasma, 100 mg QD, Day 1 observed, mean of first two patients, read-out: Cmax) was 196 ng/mL. The concentration at 1 day (human, plasma, oral, 100 mg, plasma, 100 mg QD, Day 1 observed, mean of first two patients, read-out: Cmin) was 103 ng/mL, the concentration at 1 day (human, plasma, oral, 100 mg, plasma, 100 mg QD, Day 1 observed, mean of first two patients, read-out: Cmin^free) was 5.4 ng/mL and the AUC (human, plasma, oral, 100 mg, plasma, 100 mg QD, Day 15 (Example 10), read-out: AUC) was 3290 ng·h/mL. It also gave a Cmax (human, plasma, oral, 100 mg, plasma, 100 mg QD, Day 15 (Example 10), read-out: Cmax) of 211 ng/mL, an AUC(0-t) (human, plasma, oral, 100 mg, plasma, 100 mg QD, Day 15, individual patients, read-out: AUClast) of 7240 ng·h/mL and a Cmax (human, plasma, oral, 100 mg, plasma, 100 mg QD, Day 15, individual patients, read-out: Cmax) of 457 ng/mL. It also gave a half-life (human, plasma, oral, 100 mg, plasma, 100 mg QD, Day 15, individual patients, read-out: t1/2 (converted)) of 17 h, an AUC (human, plasma, oral, 100 mg, plasma, 100 mg QD, Day 15 observed, mean of first two patients, read-out: AUC) of 6580 ng·h/mL and a Cmax (human, plasma, oral, 100 mg, plasma, 100 mg QD, Day 15 observed, mean of first two patients, read-out: Cmax) of 408 ng/mL. For the same compound, the concentration at 15 day (human, plasma, oral, 100 mg, plasma, 100 mg QD, Day 15 observed, mean of first two patients, read-out: Cmin) was 177 ng/mL.
